Test results: ChEMBL document CHEMBL1143688 (J Med Chem, 2007)

Tests used:
Phosphodiesterase 3 = Phosphodiesterase 3 (Homo sapiens, UniProt Q14432+Q13370); assay: Inhibition of human platelet PDE3
Plasma = assay: Inhibition of 10.0 ug/mL collagen-induced platelet aggregation in human platelet rich plasma; assay type: functional

| Compound | IC50 (Phosphodiesterase 3) [µM] | IC50 (Plasma) [µM] |
| --- | --- | --- |
| Cc1c(OCCN2CCOCC2)ccc2c(N3CCNCC3)cc(=O)oc12 | 0.078 |  |
| O=c1cc(N2CCNCC2)c2ccccc2o1 |  | 36 |
| O=c1cc(N2CCNCC2)oc2ccccc12 |  | 60 |
| Cc1c(OCc2cccnc2)ccc2c(N3CCNCC3)cc(=O)oc12 | 0.037 |  |
| O=C1CCc2cc(OCCCCc3nnnn3C3CCCCC3)ccc2N1 [CILOSTAZOL] | 0.28 |  |
